This passage reports TGI and GI50 results from PubChem BioAssay (NCI).

Values joined by “and” are separate entries in the source; they are usually repeats but may differ in a detail not shown here. Identical values can stand only once.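 Exposure lasted 48 hours, with cells grown in 96-well plates and compounds tested at five concentrations. GI50: concentration for 50% inhibition of growth. TGI is the concentration that stops growth completely.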

Experiment in all cases: NCI anticancer screen, dose series, 48 h
The test system of assay [1] is BT-549 breast.
For assay [2], the system named is SNB-78 CNS.
For assay [3], the system named is M19-MEL melanoma.
Assay [4] concerns UACC-257 melanoma.
Assay [5] relates to DLD-1 colon.
Assay [6] concerns SF-539 CNS.
The subject of assay [7] is MCF7 breast.
The subject of assay [8] is KM20L2 colon.
Assay [9] has as its system HL-60(TB) leukemia.
Assay [10] relates to T-47D breast.

Turning to `CC(=O)O[C@H]1C(=O)O[C@@H]2C[C@H]3C(C)=CC(=O)[C@@H](O)[C@]3(C)[C@H]3[C@@]4(O)OC[C@]32[C@@H]1[C@@H](C)[C@H]4O`, the TGI in assay [1] was 0.513 µM; in assay [2], 0.384 µM; in assay [3], 0.072 µM; in [4], 0.137 µM; in assay [5] it was 0.403 µM; in assay [6] it was 0.0151 µM and 0.0663 µM. The TGI in [7] was 0.0593 µM and 0.0543 µM; in assay [8] it was 2.43 µM; in [9], 0.4 µM. The figures for the GI50 in [4], in assay [6] and in assay [7] were 0.0322 µM, less than 0.01 µM and less than 0.01 µM, respectively.

`O=C1CCCC2=C(N1)C(=O)C=CC2=O`: the TGI in assay [1] was 31.1 µM; in assay [2], greater than 100 µM; in [3] it was greater than 100 µM; in assay [4], 61.1 µM; in assay [5] it was greater than 100 µM; in assay [6], 59.1 µM. In addition, the TGI was 38.4 µM in assay [7], greater than 100 µM in assay [8], 73.5 µM in assay [9] and 52.7 µM in assay [10].

As to `O=C(O)C1NCCc2c1[nH]c1ccccc21` (stereo unspecified), the TGI in assay [1] is greater than 10 µM; in assay [2], greater than 100 µM; in [3] it was greater than 100 µM; in [4], greater than 100 µM; in assay [5] it was greater than 100 µM; in [6], greater than 100 µM. For the same compound, the TGI was greater than 10 µM in assay [7], greater than 100 µM in assay [8], greater than 100 µM in assay [9] and greater than 10 µM in assay [10]. Also, the GI50 in [4], in [6] and in [9] was greater than 100 µM throughout.

Turning to `CNNCc1ccc(C(=O)NC(C)C)cc1`, the TGI in assay [1], in assay [2], in assay [3], in assay [4], in assay [5] and in assay [6] was greater than 500 µM each time. The TGI in assay [7], in [8], in assay [9] and in assay [10] was greater than 500 µM throughout. The GI50 in [4] and in assay [8] was greater than 500 µM in each case.

For `COc1ccc(CNC2=C(NC(C)=O)C(=O)c3ccccc3C2=O)cc1`, the TGI in assay [2] is 40.6 µM; in assay [3] it was 17.4 µM; in assay [4] it was 21.7 µM; in assay [5], 22.8 µM; in [6] it was 21.9 µM; in assay [8], greater than 50 µM. In assay [9], this compound returned a TGI of 7.45 µM.

On to `COC1C=CC(C(=O)[N+]2=Cc3[nH]c4ccccc4c3CC2)O1` (stereo unspecified), for which the TGI in [2], in [3], in [4], in [5], in [6] and in [8] was greater than 100 µM throughout. Further, in assay [9], the TGI was greater than 100 µM.
